Assay results from patent US20250136606A1, “MODULATORS OF TRPML, THEIR COMPOSITIONS AND METHODS OF USE” (Caraway Therapeutics, Inc., priority 2021, published 2025).

Assays:
Assay type in all cases: cell-based
Conditions in all cases: fluorescent calcium assay
[1] = molecular target: TRPML1 (Homo sapiens, UniProt Q9GZU1); assay: Fluorescent TRPML1 assay (Fluo4-AM calcium fluorescence in doxycycline-induced HEK-293 Trex cells)
Summary of the method: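 HEK-293 Trex cells stably carrying human TRPML1 (surface-trafficking mutant) were induced overnight with 0.5 ug/mL doxycycline, loaded with 1 micromolar Fluo4-AM, and suspended in Ringer's with 10 mM calcium. Compounds at 20 micromolar to 6 nanomolar final, half-log steps, triplicate; fluorescence 480/540 nm gave percent activity versus controls and EC50 by non-linear regression.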

[2] = molecular target: T1, TRPML2 (Homo sapiens, UniProt Q8IZK6); assay: Fluorescent TRPML2 assay (performed as for TRPML1, substituting the TRPML2 subtype)
T1 construct: expressed in transfected cells
T1 sequence (Q8IZK6 1-566): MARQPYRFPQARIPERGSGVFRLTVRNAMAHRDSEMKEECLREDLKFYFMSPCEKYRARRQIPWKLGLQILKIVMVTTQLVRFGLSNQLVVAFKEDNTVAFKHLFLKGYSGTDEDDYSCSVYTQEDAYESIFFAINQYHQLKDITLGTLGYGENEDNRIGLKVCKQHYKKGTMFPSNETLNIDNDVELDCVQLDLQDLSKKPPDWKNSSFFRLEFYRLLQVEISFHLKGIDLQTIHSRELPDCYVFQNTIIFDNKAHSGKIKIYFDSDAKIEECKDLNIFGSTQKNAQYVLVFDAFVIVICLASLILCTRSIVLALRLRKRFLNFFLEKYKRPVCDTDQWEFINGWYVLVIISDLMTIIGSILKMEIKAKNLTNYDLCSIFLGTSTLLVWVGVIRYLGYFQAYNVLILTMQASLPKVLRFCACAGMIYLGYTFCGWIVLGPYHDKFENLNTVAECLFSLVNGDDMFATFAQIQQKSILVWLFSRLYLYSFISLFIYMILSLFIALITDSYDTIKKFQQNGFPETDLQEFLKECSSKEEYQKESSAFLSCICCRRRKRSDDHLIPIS
Summary of the method: (§1)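 HEK-293 Trex cells with doxycycline-induced (0.5 ug/mL) surface-directed human TRPML subtype, loaded with 1 μM Fluo4-AM, resuspended in Ringer's with 10 mM calcium. Compounds at 20 μM to 6 nM final in half-log steps, triplicate; fluorescence ex 480/em 540; EC50 by non-linear regression versus plate controls.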

[3] = molecular target: T2, TRPML3 (Homo sapiens, UniProt Q8TDD5); assay: Fluorescent TRPML3 assay (performed as for TRPML1, substituting the TRPML3 subtype)
T2 construct: expressed in transfected cells
T2 sequence (Q8TDD5 1-553): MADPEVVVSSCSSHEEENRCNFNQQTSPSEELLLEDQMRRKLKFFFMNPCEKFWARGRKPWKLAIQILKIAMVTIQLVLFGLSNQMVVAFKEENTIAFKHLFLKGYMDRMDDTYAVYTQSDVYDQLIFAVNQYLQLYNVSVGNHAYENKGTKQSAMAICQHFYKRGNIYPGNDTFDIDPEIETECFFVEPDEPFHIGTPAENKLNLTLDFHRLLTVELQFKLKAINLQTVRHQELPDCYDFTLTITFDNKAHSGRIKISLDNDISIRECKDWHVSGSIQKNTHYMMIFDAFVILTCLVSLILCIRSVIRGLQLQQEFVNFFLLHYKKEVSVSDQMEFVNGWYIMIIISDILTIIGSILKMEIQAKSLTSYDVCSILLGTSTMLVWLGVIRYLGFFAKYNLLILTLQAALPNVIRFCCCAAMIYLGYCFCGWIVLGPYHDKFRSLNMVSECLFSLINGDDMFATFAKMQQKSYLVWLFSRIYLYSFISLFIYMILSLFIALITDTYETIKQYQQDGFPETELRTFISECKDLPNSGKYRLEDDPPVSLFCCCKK
Summary of the method: as §1

TRPML1, sequence (Q9GZU1 whole entry L15A/L16A/L577A/L578A, form open): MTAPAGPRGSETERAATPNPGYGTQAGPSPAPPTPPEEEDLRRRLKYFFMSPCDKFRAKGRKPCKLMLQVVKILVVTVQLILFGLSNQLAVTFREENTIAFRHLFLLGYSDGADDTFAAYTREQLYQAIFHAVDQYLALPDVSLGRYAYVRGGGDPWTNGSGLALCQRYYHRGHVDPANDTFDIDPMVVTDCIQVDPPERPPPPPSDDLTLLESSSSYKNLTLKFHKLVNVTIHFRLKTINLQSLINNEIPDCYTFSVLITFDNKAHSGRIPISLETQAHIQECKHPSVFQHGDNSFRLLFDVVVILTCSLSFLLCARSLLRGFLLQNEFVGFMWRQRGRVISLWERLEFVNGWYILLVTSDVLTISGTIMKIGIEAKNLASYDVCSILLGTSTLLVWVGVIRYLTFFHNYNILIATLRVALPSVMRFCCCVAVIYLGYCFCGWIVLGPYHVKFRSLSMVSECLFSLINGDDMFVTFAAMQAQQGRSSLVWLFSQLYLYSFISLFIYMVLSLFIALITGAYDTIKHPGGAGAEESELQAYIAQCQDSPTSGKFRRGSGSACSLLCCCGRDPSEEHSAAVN

Row | SMILES | EC50 [1] [nM] | EC50 [2] [nM] | EC50 [3] [nM]
1 | CCN(CC)c1cn(-c2cc(C#N)ccn2)c2ncnc(N3CCN(C(=O)OC(C)(C)C(F)(F)F)C[C@@H]3C)c12 [Compound 422, 1,1,1-trifluoro-2-methylpropan-2-yl (S)-4-(7-(4-cyanopyridin-2-yl)-5-(diethylamino)-7H-pyrrolo[2,3-d]pyrimidin-4-yl)-3-methylpiperazine-1-carboxylate] | < 100 | 100 to 500 | < 100
2 | CCCN(CC)c1cn(-c2cc(C#N)ccn2)c2ncnc(N3CCN(C(=O)OC(C)(C)C)C[C@@H]3C)c12 [Compound 423, tert-butyl (S)-4-(7-(4-cyanopyridin-2-yl)-5-(ethyl(propyl)amino)-7H-pyrrolo[2,3-d]pyrimidin-4-yl)-3-methylpiperazine-1-carboxylate] | < 100 | < 100 | < 100
3 | CCN(CC)c1cn(-c2cc(C#N)ccn2)c2ncnc(N3CCN(C(=O)OC(C)(C)C)C[C@@H]3C)c12 [Compound 424, tert-butyl (S)-4-(7-(4-cyanopyridin-2-yl)-5-(diethylamino)-7H-pyrrolo[2,3-d]pyrimidin-4-yl)-3-methylpiperazine-1-carboxylate] | < 100 | 100 to 500 | < 100
4 | CCN(CC)c1cn(-c2cc(C#N)ccn2)c2ncnc(N3CCN(C(=O)OC(C)(C)C)[C@H](C)C3)c12 [Compound 425, tert-butyl (R)-4-(7-(4-cyanopyridin-2-yl)-5-(diethylamino)-7H-pyrrolo[2,3-d]pyrimidin-4-yl)-2-methylpiperazine-1-carboxylate] | < 100 | 100 to 500 | < 100
5 | C[C@H]1CN(C(=O)OC(C)(C)C)CCN1c1ncnc2c1c(N(C)C)cn2-c1cc(C#N)ccn1 [Compound 426, tert-butyl (S)-4-(7-(4-cyanopyridin-2-yl)-5-(dimethylamino)-7H-pyrrolo[2,3-d]pyrimidin-4-yl)-3-methylpiperazine-1-carboxylate] | < 100 | < 100 | < 100
6 | C[C@@H]1CN(c2ncnc3c2c(N(C)C)cn3-c2cc(C#N)ccn2)CCN1C(=O)OC(C)(C)C [Compound 427, tert-Butyl (R)-4-(7-(4-cyanopyridin-2-yl)-5-(dimethylamino)-7H-pyrrolo[2,3-d]pyrimidin-4-yl)-2-methylpiperazine-1-carboxylate] | < 100 | < 100 | < 100
7 | C[C@H]1CN(C(=O)OC(C)(C)C)CCN1c1ncnc2c1c(-c1ccccc1F)cn2-c1ncc(C#N)s1 [Compound 428, tert-butyl (S)-4-(7-(5-cyanothiazol-2-yl)-5-(2-fluorophenyl)-7H-pyrrolo[2,3-d]pyrimidin-4-yl)-3-methylpiperazine-1-carboxylate] | < 100 | < 100 | < 100
8 | CC(C)(C)OC(=O)N1CCN(c2ncnc3c2c(C2CC2)cn3-c2cc(C#N)ccn2)C2(CC2)C1 [Compound 429, tert-butyl 4-(7-(4-cyanopyridin-2-yl)-5-cyclopropyl-7H-pyrrolo[2,3-d]pyrimidin-4-yl)-4,7-diazaspiro[2.5]octane-7-carboxylate] | < 100 | < 100 | < 100
9 | C[C@@H]1CN(c2ncnc3c2c(N(C)C)cn3-c2cccc(Cl)c2)CCN1C(=O)OC(C)(C)C [Compound 430, tert-butyl (R)-4-(7-(3-chlorophenyl)-5-(dimethylamino)-7H-pyrrolo[2,3-d]pyrimidin-4-yl)-2-methylpiperazine-1-carboxylate] | < 100 | 100 to 500 | < 100
10 | C[C@H]1CN(C(=O)OC(C)(C)C)CCN1c1ncnc2c1c(C1CC1)cn2-c1cc(C#N)ncn1 [Compound 431, tert-butyl (S)-4-(7-(6-cyanopyrimidin-4-yl)-5-cyclopropyl-7H-pyrrolo[2,3-d]pyrimidin-4-yl)-3-methylpiperazine-1-carboxylate] | 100 to 500 | 500 to 2000 | < 100
11 | C[C@H]1CN(C(=O)OC(C)(C)C)CCN1c1ncnc2c1c(C1CC1)cn2-c1nccc(C#N)n1 [Compound 432, tert-Butyl (S)-4-(7-(4-cyanopyrimidin-2-yl)-5-cyclopropyl-7H-pyrrolo[2,3-d]pyrimidin-4-yl)-3-methylpiperazine-1-carboxylate] | 100 to 500 | 500 to 2000 | < 100
12 | C[C@H]1CN(C(=O)OC(C)(C)C)CCN1c1ncnc2c1c(-c1ccccc1F)cn2-c1nc(C#N)cs1 [Compound 433, tert-butyl (S)-4-(7-(4-cyanothiazol-2-yl)-5-(2-fluorophenyl)-7H-pyrrolo[2,3-d]pyrimidin-4-yl)-3-methylpiperazine-1-carboxylate] | 100 to 500 | 500 to 2000 | 100 to 500
13 | C[C@@H]1CN(c2ncnc3c2c(-c2ccccc2F)cn3-c2ncc(C#N)s2)[C@@H](C)CN1C(=O)OC(C)(C)C [Compound 434, tert-butyl (2R,5S)-4-(7-(5-cyanothiazol-2-yl)-5-(2-fluorophenyl)-7H-pyrrolo[2,3-d]pyrimidin-4-yl)-2,5-dimethylpiperazine-1-carboxylate] | < 100 | < 100 | < 100
14 | CC(C)(C)OC(=O)N1CCN(c2ncnc3c2c(-c2ccccc2F)cn3-c2cc(C#N)ccn2)C2(CC2)C1 [Compound 435, tert-butyl 4-(7-(4-cyanopyridin-2-yl)-5-(2-fluorophenyl)-7H-pyrrolo[2,3-d]pyrimidin-4-yl)-4,7-diazaspiro[2.5]octane-7-carboxylate] | < 100 | < 100 | < 100
15 | C[C@H]1CN(C(=O)OC(C)(C)C(F)(F)F)CCN1c1ncnc2c1c(C1CCC1)cn2-c1cc(C#N)ccn1 [Compound 436, 1,1,1-trifluoro-2-methylpropan-2-yl(S)-4-(7-(4-cyanopyridin-2-yl)-5-cyclobutyl-7H-pyrrolo[2,3-d]pyrimidin-4-yl)-3-methylpiperazine-1-carboxylate] | < 100 | 100 to 500 | < 100
16 | C[C@H]1CN(C(=O)OC(C)(C)C)CCN1c1ncnc2c1c(-c1ccccc1F)cn2-c1cc(C#N)ncn1 [Compound 437, tert-butyl (S)-4-(7-(6-cyanopyrimidin-4-yl)-5-(2-fluorophenyl)-7H-pyrrolo[2,3-d]pyrimidin-4-yl)-3-methylpiperazine-1-carboxylate] | < 100 | < 100 | < 100
17 | C[C@H]1CN(C(=O)OC(C)(C)C)CCN1c1ncnc2c1c(-c1ccccc1F)cn2-c1nccc(C#N)n1 [Compound 438, tert-butyl (S)-4-(7-(4-cyanopyrimidin-2-yl)-5-(2-fluorophenyl)-7H-pyrrolo[2,3-d]pyrimidin-4-yl)-3-methylpiperazine-1-carboxylate] | < 100 | 500 to 2000 | < 100
18 | C[C@H]1CN(C(=O)OC(C)(C)C)CCN1c1ncnc2c1c(C1CC1)cn2-c1cc(C#N)cnn1 [Compound 439, tert-butyl (S)-4-(7-(5-cyanopyridazin-3-yl)-5-cyclopropyl-7H-pyrrolo[2,3-d]pyrimidin-4-yl)-3-methylpiperazine-1-carboxylate] | 100 to 500 | 500 to 2000 | < 100
19 | C[C@H]1CN(C(=O)OC(C)(C)C)CCN1c1ncnc2c1c(C1CC1)cn2-c1ncc(C#N)[nH]1 [Compound 440, tert-butyl (S)-4-(7-(5-cyano-1H-imidazol-2-yl)-5-cyclopropyl-7H-pyrrolo[2,3-d]pyrimidin-4-yl)-3-methylpiperazine-1-carboxylate] | > 2000 | > 2000 | 500 to 2000
20 | CCN(CC)c1cn(-c2cc(C#N)ccn2)c2ncnc(N3CCN(C(=O)OC(C)(C)C)CC3)c12 [Compound 441, tert-butyl 4-(7-(4-cyanopyridin-2-yl)-5-(diethylamino)-7H-pyrrolo[2,3-d]pyrimidin-4-yl)piperazine-1-carboxylate] | 100 to 500 | > 2000 | 100 to 500
